Laboratory results taken from ChEMBL document CHEMBL1148186, “Structure of Benthophoenin, a New Free Radical Scavenger Produced by Streptomyces prunicolor” (J Nat Prod, 1993).
≈ marks a conversion by molar mass, not a printed value.

Legend:
[1] = Antioxidant activity assessed as inhibition of AAPH-induced rat erythrocytes hemolysis; type: functional, cell-based; conditions: erythrocyte
[2] = Antioxidant activity assessed as free radical scavenging activity; type: functional

Row | IC50 [2] | Compound | IC50 [1]
1 | 0.15 µg/mL (≈ 0.263 µM) | CC(C)=CCC/C(C)=C/CN1c2cc(C(=O)c3ccccc3)ccc2Nc2c(C(=O)O)cc(C(=O)c3ccccc3)cc21 [BENTHOPHOENIN] | 0.8 µg/mL (≈ 1.4 µM)
2 | 10.8 µg/mL | VITAMIN E | 
